Results reported in patent publication US6979686B1, “Substituted pyrazoles as p38 kinase inhibitors” (Pharmacia Corporation, priority 2001, dated 2005).
pIC50: −log10 of the molar value. Like-named read-outs stand apart in the source and are kept apart here.

Assays:
[1] = test system: TNF alpha, BALB/c mice injected with LPS; test: Mouse model of LPS-induced TNF alpha production; format: in vivo; settings: Table 6, mouse LPS, head '8 h'
Method: Mouse Model of LPS-induced TNF Alpha Production:
TNF alpha was induced in 10-12 week old BALB/c female mice by tail vein injection with 100 ng lipopolysaccharide (from S. Typhosa) in 0.2 ml saline. One hour later mice were bled from the retroorbital sinus and TNF concentrations in serum from clotted blood were quantified by ELISA.
Efficacy was determined at each time point as percent inhibition of serum TNF levels relative to LPS injected mice that received vehicle only.
In vivo assessment of the ability of the compounds to inhibit LPS-stimulated TNP release in the mouse is shown in the column identified as: • “Mouse LPS Model, % TNF inhib @ dose @ predose time” wherein in the dose is milligram per kilogram (mpk) administered by oral gavage and the predose time indicates the number of hours before LPS challenge when the compound is administered.

[2] = target: T1, human p38 kinase alpha (Homo sapiens, UniProt Q16539); test: p38 kinase in vitro assay, phosphorylation of biotinylated PHAS-I with 32P-ATP; format: biochemical
T1 construct: GST (N, cleaved yes); made in house; host or cells: E. coli DH10B
T1 sequence (Q16539 whole entry): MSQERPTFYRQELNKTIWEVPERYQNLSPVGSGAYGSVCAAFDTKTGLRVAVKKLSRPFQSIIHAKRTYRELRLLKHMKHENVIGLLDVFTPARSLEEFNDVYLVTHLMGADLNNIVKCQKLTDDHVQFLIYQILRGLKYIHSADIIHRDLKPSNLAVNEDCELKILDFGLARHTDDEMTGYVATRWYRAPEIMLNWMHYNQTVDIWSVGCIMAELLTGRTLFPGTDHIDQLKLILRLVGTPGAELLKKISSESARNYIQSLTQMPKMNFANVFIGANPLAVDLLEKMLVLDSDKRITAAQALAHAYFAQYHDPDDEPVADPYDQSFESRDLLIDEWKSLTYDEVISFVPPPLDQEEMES

[3] = test system: TNF-α, U937 human histiocytic lymphoma cell line; test: LPS stimulation of TNF production by U937 cells; format: cell-based; settings: for U937 Cell % inhib @ conc. (uM): @ 1.0 uM; for inhibition at 1 µM: U-937, @ 1.0 uM
Outline: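 U937 cells differentiated 24 h with 20 ng/ml PMA, rested 24-48 h, used at 2 million cells/ml. Compounds in 0.1% DMSO final; LPS (E. coli, 100 ng/ml final) stimulation for 4 h at 37° C. Released TNF-α measured by ELISA; IC50 (μM).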

[4] = in vitro P38-alpha kinase inhibition, read-out: P38 alpha kinase IC50
[5] = Homo sapiens, U-937, TNF production, human U937 cells stimulated with LPS, read-out: U937 Cell IC50
[6] = in vitro P38-alpha kinase, read-out: P38 alpha kinase IC50
[7] = TNF production, human U937 cells stimulated with LPS, read-out: U937 Cell IC50
[8] = TNF production in human U937 cells stimulated with LPS
[9] = Homo sapiens, TNF production, LPS-stimulated U937 cells, read-out: U937 Cell % inhib @ conc.
[10] = TNF production, U937 cells stimulated with LPS
[11] = Homo sapiens, TNF production in human U937 cells stimulated with LPS, read-out: U937 Cell % inhib @ conc.
[12] = Homo sapiens, TNF production, U937 cells stimulated with LPS, read-out: U937 Cell % inhib @ conc.

In the case of `C#CCn1ncc(-c2ccncc2)c1-c1ccc(F)cc1` [Example A-295, 4-[5-(4-fluorophenyl)-1-(2-propynyl)-1H-pyrazol-4-yl]pyridine], the “mLPS 8 h percent inhibition” value ([1]; dose 30, oral gavage) was 94%.

`N#Cc1cc(-c2c[nH]nc2-c2ccc(F)cc2)ccn1` [Example A-215, 4-[3-(4-fluorophenyl)-1H-pyrazol-4-yl]-2-pyridinecarbonitrile] was tested, and the “mLPS 8 h percent inhibition” value ([1]; dose 30, oral gavage) was 38%.

For `Cn1cc(-c2ccnc(F)c2)c(-c2ccc(F)c(F)c2)n1` [Example A-260, 4-[3-(3,4-difluorophenyl)-1-methyl-1H-pyrazol-4-yl]-2-fluoropyridine], the “mLPS 8 h percent inhibition” value ([1]; dose 30, oral gavage) was 47%.

`CN(C)CCn1cc(-c2ccncc2)c(-c2ccc(F)cc2)n1` [Example A-261, 3-(4-fluorophenyl)-N,N-dimethyl-4-(4-pyridinyl)-1H-pyrazole-1-ethanamine] was tested, and the “mLPS 8 h percent inhibition” value ([1]; dose 30, oral gavage) was 48%.

In the case of `Cn1cc(-c2ccncc2)c(-c2cccc(F)c2)n1` [Example A-229, 4-[3-(3-fluorophenyl)-1-methyl-1H-pyrazol-4-yl]pyridine], the “mLPS 8 h percent inhibition” value ([1]; dose not given, oral gavage) was 76%.

With `Brc1ccc(-c2n[nH]cc2-c2ccncc2)cc1` [Example A-241, 4-[3-(4-bromophenyl)-1H-pyrazol-4-yl]pyridine] the “mLPS 8 h percent inhibition” value ([1]; dose 30, oral gavage) was 79%.

With `CCN(CC)CCn1cc(-c2ccncc2)c(-c2ccc(F)cc2)n1` [Example A-284, N,N-diethyl-3-(4-fluorophenyl)-4-(4-pyridinyl)-1H-pyrazole-1-ethanamine] the “mLPS 8 h percent inhibition” value ([1]; dose not given, oral gavage) was −1%.

For `CCN(CC)CCn1cc(-c2ccnc(NCc3ccc(F)cc3)c2)c(-c2ccc(F)cc2)n1` [Example A-279, 4-[1-[2-(diethylamino)ethyl]-3-(4-fluorophenyl)-1H-pyrazol-4-yl]-N-[(4-fluorophenyl)methyl]-2-pyridinamine], the “mLPS 8 h percent inhibition” value ([1]; dose 30, oral gavage) was 64%.

With `Cn1cc(-c2ccncc2)c(-c2ccc(I)cc2)n1` [Example A-251, 4-[3-(4-iodophenyl)-1-methyl-1H-pyrazol-4-yl]pyridine] the “mLPS 8 h percent inhibition” value ([1]; dose not given, oral gavage) was 32%.

`OCCNc1cc(-c2c[nH]nc2-c2ccc(F)cc2)ccn1` [Example A-280] was tested, and the “mLPS 8 h percent inhibition” value ([1]; dose 30, oral gavage) was 15%.

With `Fc1ccc(-c2n[nH]cc2-c2ccncc2)cc1F` [Example A-239, 4-[3-(3,4-difluorophenyl)-1H-pyrazol-4-yl]pyridine] the “mLPS 8 h percent inhibition” value ([1]; dose 30, oral gavage) was 51%.

`Cn1cc(-c2ccncc2)c(-c2ccc3c(c2)OCO3)n1` [Example A-231, 4-[3-(1,3-benzodioxol-5-y)-1-methyl-1H-pyrazol-4-yl]pyridine] was tested, and the “mLPS 8 h percent inhibition” value ([1]; dose 30, oral gavage) was 86%.

In the case of `Clc1ccc(-c2n[nH]cc2-c2ccncc2)cc1Cl` [Example A-297, 4-[3-(3,4-dichlorophenyl)-1H-pyrazol-4-yl]pyridine], the “mLPS 8 h percent inhibition” value ([1]; dose 30, oral gavage) was 89%.

For `COc1ccc(CC(=O)NC(Cc2ccccc2)c2[nH]nc(-c3ccc(F)cc3)c2-c2ccncc2)cc1OC` (stereo not drawn) [Example B-0815], the pIC50 [2, 4] was 5.68 and the pIC50 [3, 5] was less than 6.00.

`O=C(NC(Cc1ccccc1)c1[nH]nc(-c2ccc(F)cc2)c1-c1ccncc1)c1ccccc1` (stereo not drawn) [Example B-0819] gave a pIC50 [2, 4] of 5.97 and a pIC50 [3, 5] of less than 6.00.

With `O=C(c1ccc(Cl)cc1)N1CCC(c2[nH]nc(-c3ccc(F)cc3)c2-c2ccncc2)CC1` [Example B-1389] the pIC50 [2, 6] was 7.22 and the pIC50 [3, 5] was 6.24.

`CNC(=O)CCC(NC(=O)c1ccccc1F)c1[nH]nc(-c2ccc(F)cc2)c1-c1ccncc1` (stereo not drawn) [Example B-0874] showed a pIC50 [2, 4] of 5.72 and a pIC50 [3, 5] of less than 6.00.

`O=C(c1ccc(Br)cc1)N1CCC(c2[nH]nc(-c3ccc(F)cc3)c2-c2ccncc2)CC1` [Example B-1388] was tested, and the pIC50 [2, 6] was 6.24 and the pIC50 [3, 5] was 5.86.

In the case of `Cc1c(-c2ccncc2)c(-c2ccc(F)cc2)nn1CC(=O)N(CC(C)C)CC(C)C` [Example B-2372], the “P38 alpha kinase % inhib @ conc.” value ([2]; @ 100.0 uM) was 55.0% @ and the pIC50 [3, 7] was less than 5.00.

In the case of `CC(NC(=O)c1ccccc1F)c1[nH]nc(-c2ccc(F)cc2)c1-c1ccncc1` (stereo not drawn) [Example B-0699], the pIC50 [2, 4] was 6.47 and the “U937 Cell % inhib @ conc. (uM)” value [3, 8] was 31.0% @.

With `Cc1ccc(C)c(S(=O)(=O)NCCCc2[nH]nc(-c3ccc(F)cc3)c2-c2ccncc2)c1` [Example B-1273] the pIC50 [2, 6] was greater than 7.00 and the inhibition at 1 µM [3, 9] was 36%.

Work on `O=S(=O)(NCCCc1[nH]nc(-c2ccc(F)cc2)c1-c1ccncc1)c1cccc(Cl)c1Cl` [Example B-1250] yielded a pIC50 [2, 6] of 6.85 and an inhibition at 1 µM [3, 9] of 18%.

For `COC(=O)c1ccccc1NC(=O)NCCc1[nH]nc(-c2ccc(F)cc2)c1-c1ccncc1` [Example B-0946], the “P38 alpha kinase % inhib @ conc. (uM)” value ([2]; @ 1.0 uM) was 76.0% @ and the “U937 Cell % inhib @ conc. (uM)” value [3, 10] was 31.0% @.

`Cc1ccc(C(=O)NC(Cc2ccccc2)c2[nH]nc(-c3ccc(F)cc3)c2-c2ccncc2)cc1` (stereo not drawn) [Example B-0818] gave a pIC50 [2, 4] of 5.30 and a pIC50 [3, 5] of less than 6.00.

`O=S(=O)(NCCc1[nH]nc(-c2ccc(F)cc2)c1-c1ccncc1)c1ccccc1F` [Example B-1020] was tested, and the “P38 alpha kinase % inhib @ conc. (uM)” value ([2]; @ 1.0 uM) was 87.0% @ and the “U937 Cell % inhib @ conc. (uM)” value [3, 10] was 36.0% @.

`O=C(NCc1[nH]nc(-c2ccc(F)cc2)c1-c1ccncc1)[C@@H]1C[C@@H]1c1ccccc1` [Example B-0002] showed an inhibition at 1 µM ([2]; @ 1.0 uM, read-out: P38 alpha kinase % inhib @ conc.) of 71% and an inhibition at 10 µM ([3]; Homo sapiens, U-937, @ 10.0 uM, TNF production, U937 cells stimulated with LPS, read-out: U937 Cell % inhib @ conc.) of 28%.

With `COc1ccc(CC(=O)NC(C)c2[nH]nc(-c3ccc(F)cc3)c2-c2ccncc2)cc1` (stereo not drawn) [Example B-0549] the pIC50 [2, 4] was 5.65 and the inhibition at 1 µM [3, 11] was 22%.

`CCCCOc1ccc(S(=O)(=O)NCCc2[nH]nc(-c3ccc(F)cc3)c2-c2ccncc2)cc1` [Example B-1084] was tested, and the pIC50 [2, 4] was 6.37 and the inhibition at 1 µM [3, 12] was 29%.

With `CCOC(=O)CC[C@H](NC(=O)Cn1nc(-c2ccc(F)cc2)c(-c2ccncc2)c1C)C(=O)OCC` [Example B-2360] the “P38 alpha kinase % inhib @ conc.” value ([2]; @ 10.0 uM) was 45.0% @ and the pIC50 [3, 7] was less than 5.00.

Compound `CC(NC(=O)c1ccno1)c1[nH]nc(-c2ccc(F)cc2)c1-c1ccncc1` (stereo not drawn) [Example B-0541] has a pIC50 [2, 4] of 5.49 and an inhibition at 1 µM [3, 11] of 28%.

With `N#Cc1cccc(C(=O)NCCc2[nH]nc(-c3ccc(F)cc3)c2-c2ccncc2)c1` [Example B-1127] the pIC50 [2, 4] was 6.15 and the inhibition at 1 µM [3, 12] was 7%.

Compound `O=C(NC(Cc1ccccc1)c1[nH]nc(-c2ccc(F)cc2)c1-c1ccncc1)c1cccc(Br)c1` (stereo not drawn) [Example B-0806] has a pIC50 [2, 4] of 5.48 and a pIC50 [3, 5] of less than 6.00.

For `CC(=O)OC(C)C(=O)NC(Cc1ccccc1)c1[nH]nc(-c2ccc(F)cc2)c1-c1ccncc1` (stereo not drawn) [Example B-0841], the pIC50 [2, 4] was 6.49 and the “U937 Cell % inhib @ conc. (uM)” value [3, 10] was 36.0% @.

In the case of `O=S(=O)(NCCc1[nH]nc(-c2ccc(F)cc2)c1-c1ccncc1)c1cc(Cl)c(Cl)s1` [Example B-1080], the pIC50 [2, 4] was 6.72 and the inhibition at 1 µM [3, 12] was 28%.

For `O=C(NC(Cc1ccccc1)c1[nH]nc(-c2ccc(F)cc2)c1-c1ccncc1)C1CCCN1` (stereo not drawn) [Example B-0795], the pIC50 [2, 4] was 5.72 and the “U937 Cell % inhib @ conc. (uM)” value [3, 8] was 11.0% @.

With `Cc1c(-c2ccncc2)c(-c2ccc(F)cc2)nn1CC(=O)N1CCC[C@H]1CN1CCCC1` [Example B-2384] the “P38 alpha kinase % inhib @ conc.” value ([2]; @ 100.0 uM) was 49% @ and the “U937 Cell % inhib @ conc.” value ([3]; @ 10.0 uM, TNF production, LPS-stimulated U937 cells) was 10.0% @.

Work on `CCCNC(=O)NC(C)c1[nH]nc(-c2ccc(F)cc2)c1-c1ccncc1` (stereo not drawn) [Example B-0590] yielded a pIC50 [2, 4] of 5.80 and a pIC50 ([3]; Homo sapiens, U-937, TNF production in human U937 cells stimulated with LPS, read-out: U937 Cell IC50) of 4.42.

With `CS(=O)(=O)c1ccc(CNC(=O)NCCCc2[nH]nc(-c3ccc(F)cc3)c2-c2ccncc2)cc1` [Example B-1312] the pIC50 [2, 6] was 6.46 and the pIC50 [3, 5] was less than 6.00.

`O=C(NCCCc1[nH]nc(-c2ccc(F)cc2)c1-c1ccncc1)NCCc1ccccn1` [Example B-1314] showed a pIC50 [2, 6] of 7.35 and an inhibition at 1 µM [3, 9] of 24%.

For `CC(NC(=O)c1cccc(C#N)c1)c1[nH]nc(-c2ccc(F)cc2)c1-c1ccncc1` (stereo not drawn) [Example B-0676], the pIC50 [2, 4] was 5.68 and the “U937 Cell % inhib @ conc. (uM)” value [3, 8] was 22.0% @.

`COc1ccccc1C(=O)NCCc1[nH]nc(-c2ccc(F)cc2)c1-c1ccncc1` [Example B-0995] was tested, and the “P38 alpha kinase % inhib @ conc. (uM)” value ([2]; @ 1.0 uM) was 53.0% @ and the “U937 Cell % inhib @ conc. (uM)” value [3, 10] was 14.0% @.

`O=C(NC(Cc1ccccc1)c1[nH]nc(-c2ccc(F)cc2)c1-c1ccncc1)C1CCCN1` (stereo not drawn) [Example B-0794] was tested, and the pIC50 [2, 4] was 5.54 and the “U937 Cell % inhib @ conc. (uM)” value [3, 8] was 2.0% @.

`Cc1c(-c2ccncc2)c(-c2ccc(F)cc2)nn1CC(=O)N1CCCCC1CCN1CCCCC1` (stereo not drawn) [Example B-2411] was tested, and the “P38 alpha kinase IC50, uM or % inhib @ conc. (uM): % inhib” value ([2]; @ 100.0 uM) was 26% @ and the “U937 Cell IC50, uM or % inhib @ conc. (uM): % inhib” value ([3]; @ 10.0 uM, TNF production, U937 cells stimulated with LPS) was 13.0% @.

Work on `Cc1n[nH]c(-c2ccc(Br)cc2)c1-c1ccncc1` [Example A-39] yielded a pIC50 ([2]; activated human p38 kinase alpha, PHAS-I substrate, 50 μM unlabeled ATP, read-out: p38 kinase IC50) of 5.96 and a pIC50 ([3]; Table 5, LPS-stimulated U937 cells, TNF-α, read-out: U937 Cell Assay IC50) of 6.61.
